According to patent US7368424B2, “Acylated nonadepsipeptides” (AiCuris GmbH & Co. KG, priority 2003, dated 2008):
Values after ≈ are worked out from the molar mass of the structure shown. Where two headings read alike, the source gives them in different places. *1 amine or outer side, *2 acyl side, *3 side chain or, on linkers, in order; H or OH if unused. Where a SMILES comes first, the peptide text is derived from it. Bridges are numbered along the chain shown (N, C = ends). [ ]: non-standard residue; d: D form. The star is where a group is joined. ξ: configuration not given here. Phe(3R-OH) = O=C([C@@H](N[*:1])[C@H](O[*:3])c1ccccc1)[*:2]; Phe(3,4-(OMe)2) = COc1ccc(C[C@H](N)C(=O)O)cc1OC; Asn(3S-OH) = NC(=O)[C@@H](O)[C@H](N)C(=O)O; Leu(3R-OH) = CC(C)[C@@H](O)[C@H](N)C(=O)O; d(tBuAla) = CC(C)(C)C[C@@H](N)C(=O)O; 2Pal = N[C@@H](Cc1ccccn1)C(=O)O; aThr = C[C@H](O)[C@H](N)C(=O)O; ξIle = CC[C@H](C)C(N)C(=O)O; Bn = c1ccc(C*)cc1

How the values were obtained:
[1] = tested on: Streptococcus pneumoniae G9a; assay type: cell-based
Experimental: (§1) Determination of the Minimum Inhibitory Concentration (MIC):
(§2) The MIC is determined in the liquid dilution test in accordance with the NCCLS guidelines. Overnight cultures of Staphylococcus aureus 133, Enterococcus faecalis 27159, E. faecium 4147 and Streptococcus pneumoniae G9a are incubated with the desired test substances in a 1:2 dilution series. The MIC determination is carried out with a cell count of 10^5 microbes per ml in Isosensitest medium (Difco, Irvine/USA), with the exception of S. pneumoniae which is tested in BHI broth (Difco, Irvine/USA) with 10% bovine serum with a cell count of 10^6 microbes per ml. The cultures are incubated at 37° C. for 18-24 hours, S. pneumoniae in the presence of 10% CO2.
(§3) The MIC is defined as the lowest concentration of each substance at which visible bacterial growth no longer occurs. The MIC values are reported in μg/ml.

[2] = tested on: Staphylococcus aureus 133; assay type: cell-based
Experimental: as §1, §2, §3

E. faecium L4001 = assay type: cell-based, Enterococcus faecium
E. faecalis ICB 27159 = assay type: cell-based, Enterococcus faecalis
Experimental: as §1, §2, §3

[3] = BHI broth with 10% bovine serum, 10^6 microbes per ml, 10% CO2, 37° C., 18-24 hours
[4] = Isosensitest medium, 10^5 microbes per ml, 37° C., 18-24 hours

SMILES | MIC S. pneumoniae ([1]; G9a) | MIC S. aureus 133 [2]; 133 | MIC E. faecium L4001 (E. faecium L4001; L4001) | MIC E. faecalis ICB 27159 (E. faecalis ICB 27159; ICB 27159) | MIC S. pneumoniae [1, 3] | MIC S. aureus 133 [2, 4] | MIC E. faecium L4001 (E. faecium L4001; [4]) | MIC E. faecalis ICB 27159 (E. faecalis ICB 27159; [4])
CC[C@H](C)[C@@H]1NC(=O)[C@@H](CCCNC(=N)N)NC(=O)[C@H](CC(C)C)NC(=O)[C@H]([C@H](O)C(C)C)NC(=O)[C@@H](NC(=O)[C@H](Cc2ccccc2)NC(=O)[C@H](N)Cc2ccccc2)[C@@H](c2ccccc2)OC(=O)[C@H](CO)NC(=O)[C@H]([C@H](O)C(N)=O)NC(=O)CNC(=O)[C@H]([C@H](C)O)NC1=O.O=C(O)C(F)(F)F.O=C(O)C(F)(F)F [Example 82, D-Phenylalanyl-L-phenylalanyl-de(1-D-leucyl-2-L-leucyl)lysobactine bistrifluoroacetate] (H-[dF]F[Phe(3R-OH)][Leu(3R-OH)]L[dR]I[aThr]G[Asn(3S-OH)]S; ester 3-C) | 0.125 µg/mL | 0.125 µg/mL | 0.5 µg/mL | 1 µg/mL | – | – | – | –
CC[C@H](C)[C@@H]1NC(=O)[C@@H](CCCNC(=N)N)NC(=O)[C@H](CC(C)C)NC(=O)[C@H]([C@H](O)C(C)C)NC(=O)[C@@H](NC(=O)[C@H](Cc2ccc(OC)c(OC)c2)NC(=O)[C@H](N)CC(C)(C)C)[C@@H](c2ccccc2)OC(=O)[C@H](CO)NC(=O)[C@H]([C@H](O)C(N)=O)NC(=O)CNC(=O)[C@H]([C@H](C)O)NC1=O [Example 86, 3-tert-Butyl-D-alanyl-3-(3,4-dimethoxyphenyl)-L-alanyl-de(1-D-leucyl-2-L-leucyl)lysobactin bistri-fluoroacetate] (H-[d(tBuAla)][Phe(3,4-(OMe)2)][Phe(3R-OH)][Leu(3R-OH)]L[dR]I[aThr]G[Asn(3S-OH)]S; ester 3-C) | – | – | – | – | 0.125 µg/mL (≈ 0.0903 µM) | 0.25 µg/mL (≈ 0.181 µM) | 1 µg/mL (≈ 0.722 µM) | 0.5 µg/mL (≈ 0.361 µM)
CC[C@H](C)[C@@H]1NC(=O)[C@@H](CCCNC(=N)N)NC(=O)[C@H](CC(C)C)NC(=O)[C@H]([C@H](O)C(C)C)NC(=O)[C@@H](NC(=O)[C@H](Cc2ccccn2)NC(=O)[C@H](N)CC(C)(C)C)[C@@H](c2ccccc2)OC(=O)[C@H](CO)NC(=O)[C@H]([C@H](O)C(N)=O)NC(=O)CNC(=O)[C@H]([C@H](C)O)NC1=O [Example 97, 3-tert-Butyl-D-alanyl-3-(2-pyridyl)-L-alanyl-de(1-D-leucyl-2-L-leucyl)lysobactin tristrifluoroacetate] (H-[d(tBuAla)][2Pal][Phe(3R-OH)][Leu(3R-OH)]L[dR]I[aThr]G[Asn(3S-OH)]S; ester 3-C) | 0.125 µg/mL (≈ 0.0943 µM) | 1 µg/mL (≈ 0.754 µM) | 1 µg/mL (≈ 0.754 µM) | 0.5 µg/mL (≈ 0.377 µM) | – | – | – | –
CC[C@H](C)C1NC(=O)[C@@H](CCCNC(=N)N)NC(=O)[C@H](CC(C)C)NC(=O)[C@H]([C@H](O)C(C)C)NC(=O)[C@@H](NC(=O)[C@H](COCc2ccccc2)NC(=O)[C@H](N)CC(C)(C)C)[C@@H](c2ccccc2)OC(=O)[C@H](CO)NC(=O)[C@H]([C@H](O)C(N)=O)NC(=O)CNC(=O)[C@H]([C@H](C)O)NC1=O.O=C(O)C(F)(F)F.O=C(O)C(F)(F)F (stereo partly drawn) [Example 99, (3-tert-Butyl-D-alanyl-O-benzyl-L-seryl)-de(1-D-leucyl-2-L-leucyl)lysobactin bistrifluoroacetate] (H-[d(tBuAla)]S(Bn)[Phe(3R-OH)][Leu(3R-OH)]L[dR][ξIle][aThr]G[Asn(3S-OH)]S; ester 3-C) | – | 0.25 µg/mL | 0.063 µg/mL | 0.063 µg/mL | ≦0.063 μg/ml | – | – | –
